Assay results: patent US20260007681A1, “INDOLE DERIVATIVES AS ESTROGEN RECEPTOR DEGRADERS” (REGENTS OF THE UNIVERSITY OF MICHIGAN, priority 2022, published 2026)

Experiments:
[1] = Cell growth assay (WST-8) (Compounds B1-B278); type: cell-based; details: 96 h; T47D cell line; WST-8, 4 days; read-out: Cell Growth Inhibition in T47D cell line IC50
Protocol: Cell Growth Assay. The cells are seeded at certain concentration (e.g., at 1500/well) in multi-well plates overnight. Cells are subsequently treated with the compounds. A certain period of time (e.g., 4 days) after the compound treatment, 10% WST-8 reagent is added to the culture medium and incubate under certain condiction (e.g., in a CO2 incubator at 37° C. for 2.5 hours). The absorbance is measured on each sample using a microplate reader at certain wavelength (e.g., 450 nm). The relative absorbance is calculated against the vehicle control from three individually repeats.
Cell Growth Assay. The cells were seeded at 1500/well in 96 well plates overnight. One day after the seeding, they were treated with indicated doses of compounds respectively. 4 days after the compound treatment, 10% WST-8 reagent was added to the culture medium and incubate in a CO2 incubator at 37° C. for 2.5 hours. Before reading, the plate was mixed gently on an orbital shaker for one minute to ensure homogeneous distribution of color. The absorbance was measured of each sample using a microplate reader at a wavelength of 450 nm. The relative absorbance was calculated against the vehicle control from three individually repeats.

ER = ER (Homo sapiens (Human), UniProt P03372); experiment: In-cell western blot analysis of relative ER percentage (Compounds B1-B278); type: cell-based; details: ER degradation, 16 hours, read-out: ICW DC50
Protocol: In-cell western blot analysis. Cells are seeded in multi-well plates (e.g., at 40,000 or 10,000 cells/well). Diluted compounds at certain concentration are added (final 0.5% DMSO) and cells are incubated for […] (e.g., 16 hours). Formaldehyde (e.g., PBS:FA=9:1) is added and followed by washing with PBS. The cells are blocked with Licor blocking buffer (Li-Cor). The relative ER percentage in treated cells are obtained by comparing the values of treated wells to those in untreated and DMSO-treated wells as 100%.
In-cell western blot analysis. a. seed cells in black-sided/clear bottom 96- or 384-well plates at 40,000 or 10,000 cells/well, overnight; b. add diluted compounds (final 0.5% DMSO), 16 hours. 16 h later, remove medium, add 100 μL or 25 μL of 3.7-4.0% formaldehyde (PBS:FA=9:1), RT 20 min, no shaking; c. wash with PBS, and permeabilized with 100 μL or 25 μL/well of 1×PBS+0.1% Triton X-100 10 minutes; d. block with 100 μL or 25 μL Licor blocking buffer (Li-Cor), RT 1 h, moderate shaking; d. Add 100 μL or 25 μL of anti-ER (cs-8644, 1:500-1,000)+GAPDH(Millipore MAB374, 1:1000) in Block+0.05% Tween 20. RT 2 h, gentle shaking. Negative control: cells plus secondary antibodies (no primary antibodies); e. wash×4 with PBS +0.05-0.1% Tween 20, gentel shaking; f. anti-rabbit-680 and anti-mouse-800 (both 1:1000 in LiCor block +0.05% Tween20, RT 1 h, gentle shaking, no light. LI-COR: 0.2% to reduce background; g. wash×4 with PBS+0.05% Tween 20, gental shaking; h. add 100 μL or 25 μL of PBS to each well and read on CLX plate reader. The relative ER percentage in treated cells were obtained by comparing the values of treated wells to those in untreated and DMSO-treated wells as 100%.

Sequence of ER (P03372 whole entry): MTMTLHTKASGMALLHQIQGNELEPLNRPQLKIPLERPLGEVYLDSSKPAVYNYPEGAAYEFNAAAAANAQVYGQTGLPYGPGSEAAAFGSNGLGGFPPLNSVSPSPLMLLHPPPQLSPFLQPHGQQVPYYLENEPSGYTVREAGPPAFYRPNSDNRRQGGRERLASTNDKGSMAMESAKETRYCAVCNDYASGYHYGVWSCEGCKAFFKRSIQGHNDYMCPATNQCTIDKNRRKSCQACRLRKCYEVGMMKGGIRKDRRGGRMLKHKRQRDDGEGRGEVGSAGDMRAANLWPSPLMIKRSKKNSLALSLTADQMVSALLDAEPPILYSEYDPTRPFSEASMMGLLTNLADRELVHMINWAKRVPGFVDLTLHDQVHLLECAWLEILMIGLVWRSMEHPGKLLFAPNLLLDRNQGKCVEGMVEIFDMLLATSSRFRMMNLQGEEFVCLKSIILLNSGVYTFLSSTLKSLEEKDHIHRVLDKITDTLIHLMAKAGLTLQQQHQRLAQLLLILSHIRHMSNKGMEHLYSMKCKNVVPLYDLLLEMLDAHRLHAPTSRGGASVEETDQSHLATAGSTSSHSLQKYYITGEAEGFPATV

Compound | DC50 (ER) [nM] | IC50 [1] [nM]
C[C@@H]1Cc2c([nH]c3ccccc23)[C@@H](c2cnc(N3CCC4(CCC(N5CCN6c7cc8c(cc7OC[C@@H]6C5)C(=O)N(C5CCC(=O)NC5=O)C8)CC4)CC3)nc2)N1CC(C)(C)F (stereo partly drawn) [Compound B139, 3-((S)-3-(3-(5-((1R,3R)-2-(2-fluoro-2-methylpropyl)-3-methyl-2,3,4,9-tetrahydro-1H-pyrido[3,4-b]indol-1-yl)pyrimidin-2-yl)-3-azaspiro[5.5]undecan-9-yl)-8-oxo-1,2,3,4,4a,5,8,10-octahydro-9H-pyrazino[1′,2′:4,5][1,4]oxazino[2,3-f]isoindol-9-yl)piperidine-2,6-dione] | < 10 | 1 to 10
C[C@@H]1Cc2c([nH]c3ccccc23)[C@@H](c2cnc(N3CC4(CC(CN5CCN6c7ccc8c(c7OC[C@H]6C5)CN(C5CCC(=O)NC5=O)C8=O)C4)C3)nc2)N1CC(C)(F)F (stereo partly drawn) [Compound B178, 3-((R)-7-((2-(5-((1R,3R)-2-(2,2-difluoropropyl)-3-methyl-2,3,4,9-tetrahydro-1H-pyrido[3,4-b]indol-1-yl)pyrimidin-2-yl)-2-azaspiro[3.3]heptan-6-yl)methyl)-1-oxo-1,3,5,5a,6,7,8,9-octahydro-2H-pyrazino[1′,2′:4,5][1,4]oxazino[2,3-e]isoindol-2-yl)piperidine-2,6-dione] | 10 to 100 | 1 to 10
C[C@@H]1Cc2c([nH]c3ccccc23)[C@@H](c2cnc(N3CCC4(CC3)CC(CN3CCN5c6ccc7c(c6N(C)C[C@@H]5C3)CN(C3CCC(=O)NC3=O)C7=O)C4)nc2)N1CC(F)F (stereo partly drawn) [Compound B126, 3-((S)-7-((7-(5-((1R,3R)-2-(2,2-difluoroethyl)-3-methyl-2,3,4,9-tetrahydro-1H-pyrido[3,4-b]indol-1-yl)pyrimidin-2-yl)-7-azaspiro[3.5]nonan-2-yl)methyl)-4-methyl-1-oxo-3,4,5,5a,6,7,8,9-octahydropyrazino[1,2-a]pyrrolo[3,4-f]quinoxalin-2(1H)-yl)piperidine-2,6-dione] | 10 to 100 | > 10
C[C@@H]1Cc2c([nH]c3ccccc23)[C@@H](c2cnc(N3CCC4(CC3)CC(CN3CCC5(CC3)COc3c5ccc5c3CN(C3CCC(=O)NC3=O)C5=O)C4)nc2)N1CC(F)F (stereo partly drawn) [Compound B262, 3-(1′-((7-(5-((1R,3R)-2-(2,2-difluoroethyl)-3-methyl-2,3,4,9-tetrahydro-1H-pyrido[3,4-b]indol-1-yl)pyrimidin-2-yl)-7-azaspiro[3.5]nonan-2-yl)methyl)-6-oxo-6,8-dihydro-2H,7H-spiro[furo[2,3-e]isoindole-3,4′-piperidin]-7-yl)piperidine-2,6-dione] | 10 to 100 | < 1
C[C@@H]1Cc2c([nH]c3ccccc23)[C@@H](c2cnc(N3CCC4(CC3)CC(CN3CCN5c6ccc7c(c6OC[C@H]5C3)CN(C3CCC(=O)NC3=O)C7=O)CO4)nc2)N1CC(F)(F)CO (stereo partly drawn) [Compound B172, 3-((5aR)-7-((8-(5-((1R,3R)-2-(2,2-difluoro-3-hydroxypropyl)-3-methyl-2,3,4,9-tetrahydro-1H-pyrido[3,4-b]indol-1-yl)pyrimidin-2-yl)-1-oxa-8-azaspiro[4.5]decan-3-yl)methyl)-1-oxo-1,3,5,5a,6,7,8,9-octahydro-2H-pyrazino[1′,2′:4,5][1,4]oxazino[2,3-e]isoindol-2-yl)piperidine-2,6-dione] | > 100 | < 1

More lines, main results first:

DC50 (ER) [nM] | Compound | IC50 [1] [nM]
10 to 100 | COc1cc(N2CCC3(CC2)OCC(CN2CCN4c5ccc6c(c5OC[C@@H]4C2)CN([C@@H]2CCC(=O)NC2=O)C6=O)CO3)ccc1[C@@H]1c2[nH]c3ccccc3c2C[C@@H](C)N1CC(F)F [Compound B271, (R)-3-((S)-7-((9-(4-((1R,3R)-2-(2,2-difluoroethyl)-3-methyl-2,3,4,9-tetrahydro-1H-pyrido[3,4-b]indol-1-yl)-3-methoxyphenyl)-1,5-dioxa-9-azaspiro[5.5]undecan-3-yl)methyl)-1-oxo-1,3,5,5a,6,7,8,9-octahydro-2H-pyrazino[1′,2′:4,5][1,4]oxazino[2,3-e]isoindol-2-yl)piperidine-2,6-dione] | < 1
> 100 | C[C@@H]1Cc2c([nH]c3ccccc23)[C@@H](c2cnc(N3CC4(C3)OCC(CN3CCN5c6ccc7c(c6OC[C@H]5C3)CN([C@H]3CCC(=O)NC3=O)C7=O)CO4)nc2)N1CC(F)(F)CO [Compound B275, (S)-3-((R)-7-((2-(5-((1R,3R)-2-(2,2-difluoro-3-hydroxypropyl)-3-methyl-2,3,4,9-tetrahydro-1H-pyrido[3,4-b]indol-1-yl)pyrimidin-2-yl)-5,9-dioxa-2-azaspiro[3.5]nonan-7-yl)methyl)-1-oxo-1,3,5,5a,6,7,8,9-octahydro-2H-pyrazino[1′,2′:4,5][1,4]oxazino[2,3-e]isoindol-2-yl)piperidine-2,6-dione] | > 10
10 to 100 | C[C@@H]1Cc2c([nH]c3ccccc23)[C@@H](c2cnc(N3CC4(CCC(CN5CCN6c7cc8c(cc7OC[C@@H]6C5)C(=O)N(C5CCC(=O)NC5=O)C8)CC4)C3)nc2)N1CC(F)F (stereo partly drawn) [Compound B120, 3-((S)-3-((2-(5-((1R,3R)-2-(2,2-difluoroethyl)-3-methyl-2,3,4,9-tetrahydro-1H-pyrido[3,4-b]indol-1-yl)pyrimidin-2-yl)-2-azaspiro[3.5]nonan-7-yl)methyl)-8-oxo-1,2,3,4,4a,5,8,10-octahydro-9H-pyrazino[1′,2′:4,5][1,4]oxazino[2,3-f]isoindol-9-yl)piperidine-2,6-dione] | 1 to 10
< 10 | C[C@@H]1Cc2c([nH]c3ccccc23)[C@@H](c2cnc(N3CCC4(CC3)CN(C(=O)CN3CCN5c6ccc7c(c6OC[C@H]5C3)CN(C3CCC(=O)NC3=O)C7=O)C4)nc2)N1CC(F)F (stereo partly drawn) [Compound B176, 3-((R)-7-(2-(7-(5-((1R,3R)-2-(2,2-difluoroethyl)-3-methyl-2,3,4,9-tetrahydro-1H-pyrido[3,4-b]indol-1-yl)pyrimidin-2-yl)-2,7-diazaspiro[3.5]nonan-2-yl)-2-oxoethyl)-1-oxo-1,3,5,5a,6,7,8,9-octahydro-2H-pyrazino[1′,2′:4,5][1,4]oxazino[2,3-e]isoindol-2-yl)piperidine-2,6-dione] | 1 to 10
10 to 100 | C[C@@H]1Cc2c([nH]c3ccccc23)[C@@H](c2cnc(N3CCC(OCCN4CCN5c6cc7c(cc6OC[C@@H]5C4)C(=O)N([C@H]4CCC(=O)NC4=O)C7)CC3)nc2)N1CC(F)F [Compound 1B24, (S)-3-((S)-3-(2-((1-(5-((1R,3R)-2-(2,2-difluoroethyl)-3-methyl-2,3,4,9-tetrahydro-1H-pyrido[3,4-b]indol-1-yl)pyrimidin-2-yl)piperidin-4-yl)oxy)ethyl)-8-oxo-1,2,3,4,4a,5,8,10-octahydro-9H-pyrazino[1,2′:4,5][1,4]oxazino[2,3-f]isoindol-9-yl)piperidine-2,6-dione] | 1 to 10
10 to 100 | C[C@@H]1Cc2c([nH]c3ccccc23)[C@@H](c2c(F)cc(-c3ncc(C(=O)N4CCN5c6cc7c(cc6OC[C@@H]5C4)C(=O)N([C@H]4CCC(=O)NC4=O)C7)cn3)cc2F)N1CC(F)F [Compound B117, (S)-3-((S)-3-(2-(4-((1R,3R)-2-(2,2-difluoroethyl)-3-methyl-2,3,4,9-tetrahydro-1H-pyrido[3,4-b]indol-1-yl)-3,5-difluorophenyl)pyrimidine-5-carbonyl)-8-oxo-1,2,3,4,4a,5,8,10-octahydro-9H-pyrazino[1′,2′:4,5][1,4]oxazino[2,3-f]isoindol-9-yl)piperidine-2,6-dione] | 1 to 10
